The target of one test is Integrin alpha-V/beta-3 (Homo sapiens, UniProt P05106+P06756). The test is described as follows: Displacement of [125I]echistatin from human placental integrin alphaVbeta3 receptor. For orientation: In a radioligand displacement assay an active substance lowers the binding of a labelled ligand.
The next test deals with Integrin alpha-V/beta-5 (Homo sapiens, UniProt P06756+P18084). The test is described as follows: Displacement of [125I]Echistatin from human placental integrin alpha-V-beta-5 receptor.
Chain of Integrin alpha-V/beta-5 (P06756 31-889 limits assumed): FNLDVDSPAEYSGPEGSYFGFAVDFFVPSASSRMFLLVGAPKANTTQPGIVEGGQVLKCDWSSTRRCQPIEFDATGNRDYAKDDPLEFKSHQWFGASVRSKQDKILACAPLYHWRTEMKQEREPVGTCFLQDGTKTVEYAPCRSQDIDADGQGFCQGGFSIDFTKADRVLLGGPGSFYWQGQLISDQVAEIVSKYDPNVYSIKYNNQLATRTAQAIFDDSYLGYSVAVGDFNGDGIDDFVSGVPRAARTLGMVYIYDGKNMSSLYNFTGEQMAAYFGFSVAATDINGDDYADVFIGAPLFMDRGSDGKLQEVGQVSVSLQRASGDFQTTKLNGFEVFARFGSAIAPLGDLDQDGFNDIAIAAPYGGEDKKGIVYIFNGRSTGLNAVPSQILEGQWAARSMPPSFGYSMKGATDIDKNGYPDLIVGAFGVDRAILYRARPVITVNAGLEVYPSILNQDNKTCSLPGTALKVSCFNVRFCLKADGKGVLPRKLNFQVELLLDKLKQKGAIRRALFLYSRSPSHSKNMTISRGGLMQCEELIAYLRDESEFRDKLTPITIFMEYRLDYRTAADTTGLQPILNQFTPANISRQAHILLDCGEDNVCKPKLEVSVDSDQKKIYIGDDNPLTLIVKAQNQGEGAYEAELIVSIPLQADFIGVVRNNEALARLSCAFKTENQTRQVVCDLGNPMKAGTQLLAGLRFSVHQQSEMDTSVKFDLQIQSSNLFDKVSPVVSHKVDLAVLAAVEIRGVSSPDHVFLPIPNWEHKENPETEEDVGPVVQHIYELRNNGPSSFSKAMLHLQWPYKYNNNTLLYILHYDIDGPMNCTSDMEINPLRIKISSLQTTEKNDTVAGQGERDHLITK
Chain of Integrin alpha-V/beta-5 (P06756 891-1048 limits assumed): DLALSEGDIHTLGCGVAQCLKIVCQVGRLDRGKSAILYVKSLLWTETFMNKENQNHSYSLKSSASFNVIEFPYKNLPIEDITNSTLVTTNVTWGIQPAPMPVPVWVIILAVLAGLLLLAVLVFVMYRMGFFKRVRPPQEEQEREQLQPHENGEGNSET
Chain of Integrin alpha-V/beta-5 (P18084 24-799 limits assumed): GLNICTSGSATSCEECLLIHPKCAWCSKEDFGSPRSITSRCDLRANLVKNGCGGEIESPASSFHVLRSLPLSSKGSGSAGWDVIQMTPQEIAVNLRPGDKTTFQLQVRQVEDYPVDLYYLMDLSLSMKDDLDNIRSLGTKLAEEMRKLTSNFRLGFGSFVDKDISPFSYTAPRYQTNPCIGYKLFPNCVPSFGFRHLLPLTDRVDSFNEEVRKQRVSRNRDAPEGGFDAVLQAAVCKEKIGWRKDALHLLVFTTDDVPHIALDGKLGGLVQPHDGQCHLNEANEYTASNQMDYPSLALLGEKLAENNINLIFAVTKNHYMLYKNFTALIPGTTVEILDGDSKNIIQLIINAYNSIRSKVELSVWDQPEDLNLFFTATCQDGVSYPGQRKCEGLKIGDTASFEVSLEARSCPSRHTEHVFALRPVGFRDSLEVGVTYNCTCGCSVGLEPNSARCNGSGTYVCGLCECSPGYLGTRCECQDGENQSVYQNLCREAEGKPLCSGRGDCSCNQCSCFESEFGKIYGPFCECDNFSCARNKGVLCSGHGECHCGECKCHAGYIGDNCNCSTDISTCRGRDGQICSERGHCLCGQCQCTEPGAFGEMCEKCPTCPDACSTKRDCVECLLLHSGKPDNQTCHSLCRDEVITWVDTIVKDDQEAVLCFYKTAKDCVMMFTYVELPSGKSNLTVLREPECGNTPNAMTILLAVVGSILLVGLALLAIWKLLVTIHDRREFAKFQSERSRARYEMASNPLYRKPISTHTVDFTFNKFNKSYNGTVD

Chain of Integrin alpha-V/beta-3 (P05106 27-788 limits assumed): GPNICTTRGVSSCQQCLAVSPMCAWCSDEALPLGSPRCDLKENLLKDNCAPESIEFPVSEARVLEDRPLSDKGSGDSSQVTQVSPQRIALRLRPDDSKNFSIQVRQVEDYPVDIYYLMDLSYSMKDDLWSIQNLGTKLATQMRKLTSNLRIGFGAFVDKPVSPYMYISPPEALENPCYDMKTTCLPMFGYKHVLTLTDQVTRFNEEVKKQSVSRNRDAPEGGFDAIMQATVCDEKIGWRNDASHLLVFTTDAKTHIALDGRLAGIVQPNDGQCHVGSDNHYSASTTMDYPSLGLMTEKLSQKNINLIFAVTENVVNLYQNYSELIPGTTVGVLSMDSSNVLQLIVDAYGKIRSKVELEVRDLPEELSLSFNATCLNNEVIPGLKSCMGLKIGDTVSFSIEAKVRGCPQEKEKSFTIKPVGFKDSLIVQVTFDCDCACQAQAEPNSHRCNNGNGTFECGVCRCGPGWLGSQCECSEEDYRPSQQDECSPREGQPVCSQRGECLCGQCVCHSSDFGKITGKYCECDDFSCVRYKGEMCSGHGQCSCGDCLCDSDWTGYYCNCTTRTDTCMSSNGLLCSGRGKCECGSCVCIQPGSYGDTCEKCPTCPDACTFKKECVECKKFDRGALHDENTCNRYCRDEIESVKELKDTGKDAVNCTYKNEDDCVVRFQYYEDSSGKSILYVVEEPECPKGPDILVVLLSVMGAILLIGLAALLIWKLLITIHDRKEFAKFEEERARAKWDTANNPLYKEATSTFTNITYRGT
Chain of Integrin alpha-V/beta-3 (P06756 31-889 limits assumed): as the sequence (P06756 31-889 limits assumed) above
Chain of Integrin alpha-V/beta-3 (P06756 891-1048 limits assumed): as the sequence (P06756 891-1048 limits assumed) above

One may read the IC50 as the midpoint of a concentration-inhibition curve. Read a high IC50 as weaker potency. Turning to `NC(N)=NCCC[C@@H]1NC(=O)[C@]23CCCN2C(=O)[C@@H](C3)NC(=O)[C@H](CC(=O)O)NC(=O)CNC1=O`, the results for the half-inhibitory concentration (IC50) on Integrin alpha-V/beta-3 and on Integrin alpha-V/beta-5 were 2.15 µM and 7.96 µM, respectively.

Consider `N=C(N)NCCC[C@@H]1NC(=O)[C@@]23CCCN2C(=O)[C@H](C3)NC(=O)[C@H](CC(=O)O)NC(=O)CNC1=O`, for which the half-maximal inhibitory concentration (IC50) turned out to be 0.0344 µM on Integrin alpha-V/beta-3 and 0.0143 µM on Integrin alpha-V/beta-5.

(Values after ChEMBL document CHEMBL1144770, “Synthesis, SAR and in vitro evaluation of new cyclic Arg-Gly-Asp pseudopentapeptides containing a s-cis peptide bond as integrin alphavbeta3 and alphavbeta5 ligands” (Bioorg Med Chem, 2008).)
